Results taken from patent US7262202B2, “Inhibitors of cyclin dependent kinases as anti-cancer agent” (Cyclacel Limited, priority 2001, dated 2007).
Read-outs that look alike come from different tables or passages of the source.

Tests used:
[1] = target: T1, CDK2/cyclin E (Homo sapiens, UniProt P24941); test: CDK2/Cyclin E kinase assay (GST-Rb phosphorylation, radiolabelled ATP); type: biochemical;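 further: enzyme was His-tagged CDK2/cyclin E co-expressed in baculovirus-infected Sf9 insect cells and purified over a metal-chelate column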
T1 construct: His; made in house; host or cells: Sf9 insect cells (baculovirus)

[2] = system: human tumour cell lines; test: cell-based anti-proliferative assays
From the text: These assays, including methods for their performance, are described in more detail in Example 3. Using such cell line and enzymes assays it may be determined whether a compound is anti-proliferative in the context of the present invention.
Selected compounds from the above examples were subjected to a standard cellular proliferation assay using a range of different human tumour cell lines. Standard 72-h MTT (thiazolyl blue; 3-[4,5-dimethylthiazol-2-yl]-2,5-diphenyltetrazolium bromide) assays were performed (Haselsberger, K.; Peterson, D. C.; Thomas, D. G.; Darling, J. L. Anti Cancer Drugs 1996, 7, 331–8; Loveland, B. E.; Johns, T. G.; Mackay, I. R.; Vaillant, F.; Wang, Z. X.; Hertzog, P. J. Biochemistry International 1992, 27, 501–10). Human tumour cell lines were obtained from the ATCC (American Type Culture Collection, 10801 University Boulevard, Manessas, Va. 20110-2209, USA).

[3] = system: A549; test: 72-h MTT cellular proliferation assay, A549; type: cell-based; settings: human tumour cell line A549, 72-h MTT; read-out: Cytotoxicity (IC50, μM) A549
From the text: (§1) Selected compounds from the above examples were subjected to a standard cellular proliferation assay using a range of different human tumour cell lines.

[4] = system: Saos-2; test: 72-h MTT cellular proliferation assay, Saos-2; type: cell-based; settings: human tumour cell line Saos-2, 72-h MTT; read-out: Cytotoxicity (IC50, μM) Saos-2
From the text: as §1

[5] = system: HT29; test: 72-h MTT cellular proliferation assay, HT29; type: cell-based; settings: HT-29; human tumour cell line HT29, 72-h MTT; read-out: Cytotoxicity (IC50, μM) HT29
From the text: as §1

[6] = bound stated, (±0.05), read-out: IC50 for cdk2/cyclinE

Structure (SMILES)	IC50 [1, 6] [µM]	IC50 ([1]; read-out: CDK2/cyclin E (IC50)) [µM]	anti-proliferative activity in cell-based assays [2]	melting point [°C]	other results
Cc1c[nH]c(C)c1-c1ccnc(Nc2ccc(F)cc2)n1 [Compound 1, [4-(2,4-Dimethyl-1H-pyrrol-3-yl)-pyrimidin-2-yl]-(4-fluoro-phenyl)-amine]	< 1	1 ± 0.7			
Cc1c[nH]c(C)c1-c1ccnc(Nc2cccc([N+](=O)[O-])c2)n1 [Compound 2]			particularly effective anti-proliferative agents		
Cc1c[nH]c(C)c1-c1ccnc(Nc2ccc(I)cc2)n1 [Compound 3, [4-(2,4-Dimethyl-1H-pyrrol-3-yl)-pyrimidin-2-yl]-(4-iodo-phenyl)-amine]	< 0.5	0.5			
Cc1c[nH]c(C)c1-c1ccnc(Nc2ccc(F)c(F)c2)n1 [Compound 4, (3,4-Difluoro-phenyl)-[4-(2,4-dimethyl-1H-pyrrol-3-yl)-pyrimidin-2-yl]-amine]	< 5	1.3 ± 0.4			
Cc1c[nH]c(C)c1-c1ccnc(Nc2ccc(Cl)cc2)n1 [Compound 5, (4-Chloro-phenyl)-[4-(2,4-dimethyl-1H-pyrrol-3-yl)-pyrimidin-2-yl]-amine]	< 5	1.7		219 to 223	
Cc1c[nH]c(C)c1-c1ccnc(Nc2cc(F)cc(F)c2)n1 [Compound 6, (3,5-Difluoro-phenyl)-[4-(2,4-dimethyl-1H-pyrrol-3-yl)-pyrimidin-2-yl]-amine]	< 5	1.3		153.3 to 156.8	
Cc1c[nH]c(C)c1-c1ccnc(Nc2ccc(O)cc2)n1 [Compound 7, 4-[4-(2,4-Dimethyl-1H-pyrrol-3-yl)-pyrimidin-2-ylamino]-phenol]	< 5	2.9		189.5 to 193.4	
Cc1c[nH]c(C)c1-c1ccnc(Nc2cccc(O)c2)n1 [Compound 8, 3-[4-(2,4-Dimethyl-1H-pyrrol-3-yl)-pyrimidin-2-ylamino]-phenol]	< 5	1.4		169 to 174.6	
Cc1c[nH]c(C)c1-c1ccnc(Nc2ccc(F)cc2F)n1 [Compound 9, (2,4-Difluoro-phenyl)-[4-(2,4-dimethyl-1H-pyrrol-3-yl)-pyrimidin-2-yl]-amine]				219 to 220	
Cc1c[nH]c(C)c1-c1ccnc(Nc2ccc(Cl)cc2Cl)n1 [Compound 10, (2,4-Dichloro-phenyl)-[4-(2,4-dimethyl-1H-pyrrol-3-yl)-pyrimidin-2-yl]-amine]				158.5 to 159.7	
Cc1c[nH]c(C)c1-c1ccnc(Nc2ccc(Cl)c(C(F)(F)F)c2)n1 [Compound 11, (4-Chloro-3-trifluoromethyl-phenyl)-[4-(2,4-dimethyl-1H-pyrrol-3-yl)-pyrimidin-2-yl]-amine]				187.7 to 190.7	
Cc1c[nH]c(C)c1-c1ccnc(Nc2ccc(C(F)(F)F)cc2)n1 [Compound 12, [4-(2,4-Dimethyl-1H-pyrrol-3-yl)-pyrimidin-2-yl]-(4-trifluoromethyl-phenyl)-amine]	< 1	0.9	particularly effective anti-proliferative agents	165.6 to 167.9	IC50 [3]: 15 µM; IC50 [4]: 17 µM; IC50 [5]: 3.1 µM
Cc1c[nH]c(C)c1-c1ccnc(Nc2cccc(C(F)(F)F)c2)n1 [Compound 13, [4-(2,4-Dimethyl-1H-pyrrol-3-yl)-pyrimidin-2-yl]-(3-trifluoromethyl-phenyl)-amine]				152.7 to 154.3	
Cc1c[nH]c(C)c1-c1ccnc(Nc2ccc(I)c(Cl)c2)n1 [Compound 16, (3-Chloro-4-iodo-phenyl)-[4-(2,4-dimethyl-1H-pyrrol-3-yl)-pyrimidin-2-yl]-amine]	< 5	1.52	particularly effective anti-proliferative agents	185 to 187.4	IC50 [3]: 4.39 µM
Cc1c[nH]c(C)c1-c1ccnc(Nc2ccc(I)c(F)c2)n1 [Compound 17, [4-(2,4-Dimethyl-1H-pyrrol-3-yl)-pyrimidin-2-yl]-(3-fluoro-4-iodo-phenyl)-amine]	< 5	1.73		200 to 202	
Cc1[nH]c(C#N)c(C)c1-c1ccnc(Nc2cccc([N+](=O)[O-])c2)n1 [Compound 31, 3,5-Dimethyl-4-[2-(3-nitro-phenylamino)-pyrimidin-4-yl]-1H-pyrrole-2-carbonitrile]			particularly effective anti-proliferative agents		
Cc1[nH]c(C#N)c(C)c1-c1ccnc(Nc2ccc(O)cc2)n1 [Compound 33, 4-[2-(4-Hydroxy-phenylamino)-pyrimidin-4-yl]-3,5-dimethyl-1H-pyrrole-2-carbonitrile]			particularly effective anti-proliferative agents		
Cc1[nH]c(C#N)c(C)c1-c1ccnc(Nc2cccc(O)c2)n1 [Compound 36, 4-[2-(3-Hydroxy-phenylamino)-pyrimidin-4-yl]-3,5-dimethyl-1H-pyrrole-2-carbonitrile]	< 0.5		particularly effective anti-proliferative agents		IC50 [4]: 0.9 µM
Cc1ccc(Nc2nccc(-c3c(C)[nH]c(C#N)c3C)n2)cc1[N+](=O)[O-] [Compound 37, 3,5-Dimethyl-4-[2-(4-methyl-3-nitro-phenylamino)-pyrimidin-4-yl]-1H-pyrrole-2-carbonitrile]			particularly effective anti-proliferative agents		
Cc1ccc(Nc2nccc(-c3c(C)[nH]c(C#N)c3C)n2)cc1O [Compound 40, 4-[2-(3-Hydroxy-4-methyl-phenylamino)-pyrimidin-4-yl]-3,5-dimethyl-1H-pyrrole-2-carbonitrile]			particularly effective anti-proliferative agents		
Cc1cc(Nc2nccc(-c3c(C)[nH]c(C#N)c3C)n2)ccc1F [Compound 41, 4-[2-(4-Fluoro-3-methyl-phenylamino)-pyrimidin-4-yl]-3,5-dimethyl-1H-pyrrole-2-carbonitrile]			particularly effective anti-proliferative agents		
Cc1[nH]c(C(N)=O)c(C)c1-c1ccnc(Nc2ccc(F)cc2)n1 [Compound 44, 4-[2-(4-Fluoro-phenylamino)-pyrimidin-4-yl]-3,5-dimethyl-1H-pyrrole-2-carboxylic acid amide]			particularly effective anti-proliferative agents		
Cc1cn(C)c(C)c1-c1ccnc(Nc2ccc(F)cc2)n1 [Compound 46, (4-Fluoro-phenyl)-[4-(1,2,4-trimethyl-1H-pyrrol-3-yl)-pyrimidin-2-yl]-amine]	< 5	1.79	particularly effective anti-proliferative agents		
Cc1[nH]c([N+](=O)[O-])c(C)c1-c1ccnc(Nc2ccc(F)cc2)n1 [Compound 47, [4-(2,4-Dimethyl-5-nitro-1H-pyrrol-3-yl)-pyrimidin-2-yl]-(4-fluoro-phenyl)-amine]			particularly effective anti-proliferative agents		
Cc1[nH]c(Br)c(C)c1-c1ccnc(Nc2ccc(F)cc2)n1 [Compound 50, [4-(5-Bromo-2,4-dimethyl-1H-pyrrol-3-yl)-pyrimidin-2-yl]-(4-fluoro-phenyl)-amine]	< 1				
Cc1[nH]c(Cl)c(C)c1-c1ccnc(Nc2ccc(F)cc2)n1 [Compound 52, [4-(5-Chloro-2,4-dimethyl-1H-pyrrol-3-yl)-pyrimidin-2-yl]-(4-fluoro-phenyl)-amine]	< 1				
CCN(CC)Cc1[nH]c(C)c(-c2ccnc(Nc3ccc(F)cc3)n2)c1C [Compound 53, [4-(5-Diethylaminomethyl-2,4-dimethyl-1H-pyrrol-3-yl)-pyrimidin-2-yl]-(4-fluoro-phenyl)-amine]	< 1	0.87	particularly effective anti-proliferative agents		IC50 [3]: 0.97 µM; IC50 [4]: 1.61 µM; IC50 [5]: 1.31 µM
Cc1[nH]c(CN2CCOCC2)c(C)c1-c1ccnc(Nc2ccc(F)cc2)n1 [Compound 55, [4-(2,4-Dimethyl-5-morpholin-4-ylmethyl-1H-pyrrol-3-yl)-pyrimidin-2-yl]-(4-fluoro-phenyl)-amine]	< 1	0.87		94.7 to 97.6	
Cc1[nH]c(CN2CCN(C)CC2)c(C)c1-c1ccnc(Nc2ccc(F)cc2)n1 [Compound 56, {4-[2,4-Dimethyl-5-(4-methyl-piperazin-1-ylmethyl)-1H-pyrrol-3-yl]-pyrimidin-2-yl}-(4-fluoro-phenyl)-amine]	< 5	1.51	particularly effective anti-proliferative agents		IC50 [3]: 13.8 µM; IC50 [4]: 14.2 µM; IC50 [5]: 5.09 µM
